Consider 18 substances from patent publication US11214803B2, “Modulators of YAP1 expression” (Ionis Pharmaceuticals, Inc., priority 2019, dated 2022).

Strand notation (5' to 3'): a small letter for the sugar, then the base; units joined by * are phosphorothioate-linked, units joined directly phosphodiester-linked; [ ] holds rarer units or linkages, { } end groups; capitals alone tell only the bases. k = constrained ethyl (cEt); [5mC] = 5-methylcytosine; d = 2'-deoxy (DNA)

The subject of data set [1] is Yap1 mRNA. Description: Antisense inhibition of human Yap1 in A-431 cells by cEt gapmers, single dose (Example 2, RTS4814). Format: cell-based. An outline of the steps: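 Single-dose knockdown screen of 3-10-3 cEt phosphorothioate gapmers at 2,000 nM added by free uptake to A-431 cells. After roughly 48 h, RNA was isolated and Yap1 transcript measured by RT-qPCR, with results given as % UTC.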

Data set [2] has as its system Yap1 mRNA. The experiment in a line: Dose-dependent inhibition of human Yap1 in A-431 cells (Example 8, 10,000 cells per well, RTS4814). Format: cell-based. The note with it: free uptake, approximately 48 hours, RTS4814; for Yap1 mRNA, % UTC: A-431 cells, 10,000 cells per well; for IC50: A-431 cells, linear regression on log/linear plot. The method, boiled down: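 A-431 cells (10,000/well) dosed with modified oligonucleotides by free uptake; Yap1 mRNA measured ~48 h later with primer-probe set RTS4814, normalized to total RNA (RIBOGREEN). Values are % of untreated control; IC50 from linear regression on log/linear plot.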

[3] abbreviates: Table 32, Yap1 mRNA, percent of untreated control, 3-10-3 cEt gapmers targeting SEQ ID NO.: 1, and 2.
[4] abbreviates: Yap1 mRNA as percent of untreated control, A-431 cells, 3-10-3 cEt gapmers targeting SEQ ID NO.: 1, and 2, Table 31.
Setting [5] is: Table 19, A-431 cells, 5,000 cells per well, free uptake, 2,000 nM modified oligonucleotide, approx. 48 hours, RTS4814, normalized to RIBOGREEN, Yap1 mRNA as percent of untreated control.
The mark [6] stands for this setting: Table 20, Yap1 mRNA, percent of untreated control, 3-10-3 cEt gapmers targeting SEQ ID NO.: 1 and 2.
The mark [7] stands for this setting: Table 21, Yap1 mRNA, percent of untreated control, 3-10-3 cEt gapmers targeting SEQ ID NO.: 1 and 2.

For the substance “1074290 (antisense k[5mC]*kT*kG*dA*d[5mC]*dT*dG*dA*dT*dT*d[5mC]*dT*d[5mC]*kT*kG*kG) [compound 1074290]”, the “YAP1 (% UTC)” value in data set [1] (setting [3]) was 5 % UTC. In addition, the “Yap1 mRNA, % UTC” value in data set [2] (31.3 nM) is given as 49 % UTC; in data set [2] (125.0 nM), 17 % UTC; in data set [2] (500.0 nM), 9 % UTC; in data set [2] (2000.00 nM), 7 % UTC. Further, the IC50 in data set [2] was less than 20 nM.

For “1074417 (kT*k[5mC]*kT*dT*dT*dA*dG*dA*dG*d[5mC]*d[5mC]*dA*dA*k[5mC]*kT*kG; antisense) [compound 1074417]”, the “YAP1 (% UTC)” value in data set [1] (setting [4]) worked out at 2 % UTC. The “Yap1 mRNA, % UTC” value amounted to 68 % UTC in data set [2] (31.3 nM), 26 % UTC in data set [2] (125.0 nM), 7 % UTC in data set [2] (500.0 nM) and 3 % UTC in data set [2] (2000.00 nM). This substance returned an IC50 in data set [2] of 100 nM.

For “1074418 (kT*kT*k[5mC]*dT*dT*dT*dA*dG*dA*dG*d[5mC]*d[5mC]*dA*kA*k[5mC]*kT; antisense) [compound 1074418]”, the “YAP1 (% UTC)” value in data set [1] (setting [3]) is 4 % UTC. The “Yap1 mRNA, % UTC” value in data set [2] (31.3 nM) came to 55 % UTC; in data set [2] (125.0 nM), 26 % UTC; in data set [2] (500.0 nM), 9 % UTC; in data set [2] (2000.00 nM), 4 % UTC. Moreover, in data set [2], the 50% inhibitory concentration (IC50) was less than 20 nM.

Turning to “1076485 (antisense kA*kA*kA*d[5mC]*dG*dA*dA*dA*d[5mC]*dG*dG*dG*dA*kA*kA*kT) [Compound 1076485]”, in data set [1] (setting [5]), the “YAP1 (% UTC)” value is recorded as 55 % UTC.

In the case of “1076486 (antisense kG*kA*kA*dA*d[5mC]*dG*dA*dA*dA*d[5mC]*dG*dG*dG*kA*kA*kA) [Compound 1076486]”, the “YAP1 (% UTC)” value in data set [1] (setting [6]) worked out at 5 % UTC.

As to “1076487 (antisense kG*kT*kA*d[5mC]*dG*dA*dA*dA*d[5mC]*dG*dA*dA*dA*k[5mC]*kG*kG) [Compound 1076487]”, in data set [1] (setting [7]), the “YAP1 (% UTC)” value is listed as 21 % UTC.

Regarding “1076488 (antisense kG*k[5mC]*k[5mC]*dA*dA*dT*dA*dA*dG*dA*dT*dA*dA*kG*kA*kA) [Compound 1076488]”, the “YAP1 (% UTC)” value in data set [1] (Table 22, Yap1 mRNA as percent of untreated control, 3-10-3 cEt gapmers, single dose) was determined as 19 % UTC.

Consider “1076489 (antisense k[5mC]*kA*kA*dA*dA*dT*dA*dG*dG*dT*dG*dA*dG*kT*k[5mC]*kA) [Compound 1076489]”, for which the “YAP1 (% UTC)” value in data set [1] (Table 23, Yap1 mRNA as percent of untreated control, 3-10-3 cEt gapmers, single dose) was 2 % UTC.

Consider “1076490 (antisense k[5mC]*k[5mC]*kA*dA*dA*dA*dT*dA*dG*dG*dT*dG*dA*kG*kT*k[5mC]) [Compound 1076490]”, for which, in data set [1] (Table 24, Yap1 mRNA as percent of untreated control, 3-10-3 cEt gapmers targeting SEQ ID NO.: 1, and 2), the “YAP1 (% UTC)” value was determined as 2 % UTC.

On to “1076491 (antisense kA*kG*k[5mC]*d[5mC]*dA*dA*dA*dA*dT*dA*dG*dG*dT*kG*kA*kG) [Compound 1076491]”, for which the “YAP1 (% UTC)” value in data set [1] (Table 25, Yap1 mRNA as percent of untreated control, 3-10-3 cEt gapmers targeting SEQ ID NO.: 1, and 2) is recorded as 12 % UTC.

As to “1076496 (kG*kT*kT*dA*dA*dA*dG*dA*d[5mC]*d[5mC]*dA*dA*d[5mC]*kA*k[5mC]*kA; antisense) [compound 1076496]”, the “YAP1 (% UTC)” value in data set [1] (Yap1 mRNA as percent of untreated control, A-431 cells, 3-10-3 cEt gapmers targeting SEQ ID NO.: 1, and 2, Table 30) stood at 81 % UTC.

For the substance “1076497 (kA*kA*kA*dG*dA*dA*dT*dA*d[5mC]*d[5mC]*dA*dA*d[5mC]*k[5mC]*kT*kG; antisense) [compound 1076497]”, the “YAP1 (% UTC)” value in data set [1] (setting [4]) was 72 % UTC.

With “1076498 (kT*kT*kA*d[5mC]*dA*dA*dT*dA*d[5mC]*d[5mC]*dT*dT*dA*kT*kG*kA; antisense) [compound 1076498]”, the “YAP1 (% UTC)” value in data set [1] (setting [3]) worked out at 70 % UTC.

“1076499 (kG*k[5mC]*kT*dA*dA*dT*dA*dT*dA*dT*d[5mC]*d[5mC]*dA*kA*kT*kT; antisense) [compound 1076499]”: the “YAP1 (% UTC)” value in data set [1] (Table 33, Yap1 mRNA, percent of untreated control, 3-10-3 cEt gapmers targeting SEQ ID NO.: 1, and 2) came out at 37 % UTC.

Take “1076516 (antisense k[5mC]*kA*kT*dA*dA*dA*d[5mC]*dA*dT*dG*dA*dG*dT*kG*kG*kT) [Compound 1076516]”: the “YAP1 (% UTC)” value in data set [1] (Table 18, A-431 cells, 5,000 cells per well, free uptake, 2,000 nM modified oligonucleotide, approx. 48 hours, RTS4814, normalized to RIBOGREEN, Yap1 mRNA as percent of untreated control) is 8 % UTC.

“1076517 (antisense k[5mC]*kA*kT*dA*dA*dT*dA*dA*dG*dA*d[5mC]*dT*dA*kA*kA*k[5mC]) [Compound 1076517]”: in data set [1] (setting [5]), the “YAP1 (% UTC)” value was found to be 102 % UTC.

Regarding “1076518 (antisense kG*kA*kT*dA*dA*dG*d[5mC]*dA*d[5mC]*d[5mC]*dA*d[5mC]*d[5mC]*kA*kT*kA) [Compound 1076518]”, the “YAP1 (% UTC)” value in data set [1] (setting [6]) was 25 % UTC.

Take “1076519 (antisense kA*k[5mC]*kA*d[5mC]*dA*dA*d[5mC]*dA*d[5mC]*dG*dA*d[5mC]*dA*kG*k[5mC]*kA) [Compound 1076519]”: in data set [1] (setting [7]), the “YAP1 (% UTC)” value turned out to be 31 % UTC.

For orientation: IC50 means the midpoint of a concentration-inhibition curve. Lower therefore signals greater potency.
